# Reference: ChEMBL document CHEMBL1201862, “PubChem BioAssay data set” (2004)
# The source made the active and inactive calls.
# Experiments:
# [1] = LMP1-driven NF-kB reporter inhibition, dose response, cell-based, luciferase reporter, luminescence, dry powder, set 2 (AID 624376); type: functional
# [2] = NIH/3T3 fibroblast cytotoxicity, dose response, cytotoxicity control for T. cruzi growth inhibitor project, cell-based, cherry-pick samples, set 2 (AID 651817); type: functional; conditions: NIH3T3
# [3] = biological target: Long-chain-fatty-acid--AMP ligase FadD28 (Mycobacterium tuberculosis, UniProt P9WQ59); assay: Fluorescence polarization aasay to screen for inhibitors that compete for the binding of FadD28 to a bisubstrate Measured in Biochemical System Using Plate Reader - 2147-01_Inhibitor_Dose_CherryPick_Activity.; type: functional, Mycobacterium tuberculosis H37Rv
# Long-chain-fatty-acid--AMP ligase FadD28, sequence (P9WQ59 whole entry): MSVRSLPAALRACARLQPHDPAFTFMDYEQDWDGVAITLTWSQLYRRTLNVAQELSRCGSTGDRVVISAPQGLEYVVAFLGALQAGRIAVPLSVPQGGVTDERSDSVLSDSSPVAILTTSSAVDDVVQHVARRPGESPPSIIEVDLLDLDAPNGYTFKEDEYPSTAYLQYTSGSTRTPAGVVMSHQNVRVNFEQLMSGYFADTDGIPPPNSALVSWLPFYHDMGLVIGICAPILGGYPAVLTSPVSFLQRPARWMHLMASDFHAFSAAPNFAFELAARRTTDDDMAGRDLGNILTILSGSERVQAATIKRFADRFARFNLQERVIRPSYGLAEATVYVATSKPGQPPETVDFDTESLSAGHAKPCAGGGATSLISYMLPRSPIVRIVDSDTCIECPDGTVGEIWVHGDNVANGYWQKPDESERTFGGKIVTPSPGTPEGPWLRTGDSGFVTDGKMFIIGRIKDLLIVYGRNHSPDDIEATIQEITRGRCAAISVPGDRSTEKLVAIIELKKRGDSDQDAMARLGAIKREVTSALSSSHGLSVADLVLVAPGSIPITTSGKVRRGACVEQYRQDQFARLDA
# [4] = biological target: Beta-galactosidase (Escherichia coli, UniProt Q8VNN2); type: functional
# Beta-galactosidase, sequence (Q8VNN2 whole entry): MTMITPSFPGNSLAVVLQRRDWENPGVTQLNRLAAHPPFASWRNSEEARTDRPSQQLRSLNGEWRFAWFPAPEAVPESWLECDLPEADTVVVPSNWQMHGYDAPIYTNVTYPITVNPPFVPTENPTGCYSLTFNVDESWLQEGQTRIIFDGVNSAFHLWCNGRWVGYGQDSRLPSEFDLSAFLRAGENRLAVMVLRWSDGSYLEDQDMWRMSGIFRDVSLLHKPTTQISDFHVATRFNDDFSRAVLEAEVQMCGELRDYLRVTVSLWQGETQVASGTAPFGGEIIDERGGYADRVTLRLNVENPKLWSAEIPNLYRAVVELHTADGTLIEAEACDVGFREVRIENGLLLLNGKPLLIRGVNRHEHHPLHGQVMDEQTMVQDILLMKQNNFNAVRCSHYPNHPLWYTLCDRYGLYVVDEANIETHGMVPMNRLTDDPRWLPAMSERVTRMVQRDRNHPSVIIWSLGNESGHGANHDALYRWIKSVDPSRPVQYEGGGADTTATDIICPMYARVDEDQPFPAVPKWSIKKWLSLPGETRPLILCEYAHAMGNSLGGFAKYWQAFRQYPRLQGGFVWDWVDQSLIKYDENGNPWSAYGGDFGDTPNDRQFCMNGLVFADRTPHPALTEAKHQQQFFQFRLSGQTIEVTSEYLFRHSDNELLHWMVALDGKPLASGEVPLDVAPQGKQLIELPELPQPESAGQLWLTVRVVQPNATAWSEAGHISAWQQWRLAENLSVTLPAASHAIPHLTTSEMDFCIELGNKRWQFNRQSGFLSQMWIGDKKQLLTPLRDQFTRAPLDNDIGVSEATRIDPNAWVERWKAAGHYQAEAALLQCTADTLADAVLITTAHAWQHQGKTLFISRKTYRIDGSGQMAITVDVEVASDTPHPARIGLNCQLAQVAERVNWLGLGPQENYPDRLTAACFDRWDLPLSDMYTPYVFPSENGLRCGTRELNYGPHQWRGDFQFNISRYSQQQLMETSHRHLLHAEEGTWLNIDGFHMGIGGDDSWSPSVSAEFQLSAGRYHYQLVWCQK
# [5] = biological target: T1, Protein RecA (Mycobacterium tuberculosis, UniProt P9WHJ3); assay: Fluorescence Cell-Free Homogeneous Dose Retest to Identify Inhibitors of RecA-Intein Splicing Activity. [Related pubchem assays (depositor defined):AID2097, AID2223, AID489010, AID492950]; type: functional
# T1 sequence (P9WHJ3 whole entry): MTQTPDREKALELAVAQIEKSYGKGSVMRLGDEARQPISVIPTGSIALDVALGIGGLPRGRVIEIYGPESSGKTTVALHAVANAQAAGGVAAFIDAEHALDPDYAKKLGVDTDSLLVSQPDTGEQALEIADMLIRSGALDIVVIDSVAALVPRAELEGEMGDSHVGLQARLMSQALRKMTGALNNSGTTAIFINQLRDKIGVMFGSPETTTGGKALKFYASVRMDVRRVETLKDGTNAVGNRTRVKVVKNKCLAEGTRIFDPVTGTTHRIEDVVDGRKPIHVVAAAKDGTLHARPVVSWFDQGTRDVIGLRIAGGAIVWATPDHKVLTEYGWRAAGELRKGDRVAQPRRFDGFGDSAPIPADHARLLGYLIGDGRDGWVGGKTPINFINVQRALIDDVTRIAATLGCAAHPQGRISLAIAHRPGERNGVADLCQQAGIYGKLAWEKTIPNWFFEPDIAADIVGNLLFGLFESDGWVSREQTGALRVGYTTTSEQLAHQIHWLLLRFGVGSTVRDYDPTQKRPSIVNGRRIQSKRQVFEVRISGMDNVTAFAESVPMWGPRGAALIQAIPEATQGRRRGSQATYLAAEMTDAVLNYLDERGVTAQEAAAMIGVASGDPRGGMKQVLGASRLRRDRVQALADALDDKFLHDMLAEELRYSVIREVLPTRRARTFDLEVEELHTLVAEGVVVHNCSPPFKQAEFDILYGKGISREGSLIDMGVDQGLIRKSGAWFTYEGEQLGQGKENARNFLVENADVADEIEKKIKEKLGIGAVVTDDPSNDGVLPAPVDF
# [6] = biological target: T2, Delta-type opioid receptor (Homo sapiens, UniProt P41143); assay: HTS Image-Based Screen for Agonists of the DOR Receptor. [Related pubchem assays (depositor defined):AID1777, AID1786, AID2133]; type: functional
# T2 sequence (P41143 whole entry): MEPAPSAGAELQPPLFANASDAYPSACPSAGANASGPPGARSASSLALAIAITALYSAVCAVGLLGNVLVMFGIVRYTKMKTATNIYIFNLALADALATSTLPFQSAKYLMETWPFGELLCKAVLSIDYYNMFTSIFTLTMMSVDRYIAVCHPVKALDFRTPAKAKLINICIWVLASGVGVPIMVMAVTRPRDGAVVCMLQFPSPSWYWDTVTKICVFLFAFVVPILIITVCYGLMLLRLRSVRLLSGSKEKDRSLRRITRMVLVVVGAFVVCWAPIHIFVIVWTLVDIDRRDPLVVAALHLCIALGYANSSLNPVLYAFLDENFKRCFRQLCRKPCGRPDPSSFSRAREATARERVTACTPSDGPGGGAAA
# [7] = biological target: T2, Delta-type opioid receptor; assay: HTS Image-Based Screen for Antagonists of the DOR Receptor. [Related pubchem assays (depositor defined):AID1777, AID1785, AID1786, AID2133]; type: functional
# [8] = biological target: Mu-type opioid receptor (Homo sapiens, UniProt P35372); assay: HTS Image-Based Screen for Agonists of the MOR Receptor. [Related pubchem assays (depositor defined):AID1777, AID1785, AID1786, AID2133]; type: functional;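 further: imaging of beta-arrestin GFP recruitment into spots after receptor activation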
# Mu-type opioid receptor, sequence (P35372 whole entry): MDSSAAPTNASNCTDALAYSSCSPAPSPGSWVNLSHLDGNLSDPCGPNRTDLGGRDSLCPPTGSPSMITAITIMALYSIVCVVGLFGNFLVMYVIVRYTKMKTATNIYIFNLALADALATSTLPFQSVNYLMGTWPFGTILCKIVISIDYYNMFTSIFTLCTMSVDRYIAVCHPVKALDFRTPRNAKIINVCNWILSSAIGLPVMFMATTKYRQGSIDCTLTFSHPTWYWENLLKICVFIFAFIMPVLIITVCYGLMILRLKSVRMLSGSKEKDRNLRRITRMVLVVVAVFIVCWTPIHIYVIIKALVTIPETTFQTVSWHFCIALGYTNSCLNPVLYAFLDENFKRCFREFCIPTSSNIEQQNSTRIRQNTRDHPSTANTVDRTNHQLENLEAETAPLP
# [9] = biological target: T3, Replicative DNA helicase DnaB (Mycobacterium tuberculosis, UniProt P9WMR3); assay: DnaB intein splicing inhibitors, dose response, biochemical, cell-free fluorescence (AID 449749); type: functional
# T3 sequence (P9WMR3 whole entry): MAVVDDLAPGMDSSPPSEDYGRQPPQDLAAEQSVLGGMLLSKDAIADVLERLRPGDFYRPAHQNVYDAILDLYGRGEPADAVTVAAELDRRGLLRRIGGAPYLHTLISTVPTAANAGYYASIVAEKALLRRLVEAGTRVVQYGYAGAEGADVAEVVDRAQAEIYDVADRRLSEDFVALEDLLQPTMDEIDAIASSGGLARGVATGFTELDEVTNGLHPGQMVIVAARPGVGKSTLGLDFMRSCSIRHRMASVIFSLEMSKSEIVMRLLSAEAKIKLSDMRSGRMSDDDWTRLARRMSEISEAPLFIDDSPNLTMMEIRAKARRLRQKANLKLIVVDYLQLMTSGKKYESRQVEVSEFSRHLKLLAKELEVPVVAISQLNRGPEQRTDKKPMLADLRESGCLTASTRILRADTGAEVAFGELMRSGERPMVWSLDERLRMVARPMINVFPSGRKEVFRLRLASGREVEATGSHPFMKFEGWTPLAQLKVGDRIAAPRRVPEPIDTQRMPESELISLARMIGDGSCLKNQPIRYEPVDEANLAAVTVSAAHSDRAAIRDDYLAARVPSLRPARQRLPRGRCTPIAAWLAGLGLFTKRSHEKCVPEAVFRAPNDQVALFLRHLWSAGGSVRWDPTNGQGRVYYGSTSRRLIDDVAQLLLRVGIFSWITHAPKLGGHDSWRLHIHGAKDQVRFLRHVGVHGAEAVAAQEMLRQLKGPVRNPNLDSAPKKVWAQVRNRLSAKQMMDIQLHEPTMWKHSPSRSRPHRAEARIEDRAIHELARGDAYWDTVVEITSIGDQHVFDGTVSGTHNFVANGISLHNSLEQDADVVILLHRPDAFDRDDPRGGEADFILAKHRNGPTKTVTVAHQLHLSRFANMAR
# [10] = biological target: T4, Rac GTPase-activating protein 1 (Homo sapiens, UniProt Q9H0H5); assay: MgcRacGAP GTPase-activating activity inhibitors, confirmation, biochemical, ADP Hunter fluorescence, primary and confirmatory (AID 624330); type: functional
# T4 sequence (Q9H0H5 whole entry): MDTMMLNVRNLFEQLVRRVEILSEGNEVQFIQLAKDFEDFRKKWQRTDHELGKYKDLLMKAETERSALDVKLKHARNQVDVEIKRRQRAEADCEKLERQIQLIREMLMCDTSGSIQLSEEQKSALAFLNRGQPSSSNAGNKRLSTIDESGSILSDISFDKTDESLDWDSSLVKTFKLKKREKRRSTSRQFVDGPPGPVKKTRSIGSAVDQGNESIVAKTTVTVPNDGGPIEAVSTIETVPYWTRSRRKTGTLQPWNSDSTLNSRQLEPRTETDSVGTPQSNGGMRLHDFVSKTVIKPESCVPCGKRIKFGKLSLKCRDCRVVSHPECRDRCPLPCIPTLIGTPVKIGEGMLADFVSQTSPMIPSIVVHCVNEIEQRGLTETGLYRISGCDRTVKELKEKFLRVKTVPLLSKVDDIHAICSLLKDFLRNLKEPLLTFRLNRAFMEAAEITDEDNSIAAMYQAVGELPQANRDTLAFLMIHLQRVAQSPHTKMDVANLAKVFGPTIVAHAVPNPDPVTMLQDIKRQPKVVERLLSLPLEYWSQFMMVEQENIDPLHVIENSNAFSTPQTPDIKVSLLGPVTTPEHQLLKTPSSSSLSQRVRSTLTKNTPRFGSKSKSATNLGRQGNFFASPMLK
# [11] = HeLa cell cytotoxicity, dose response, cytotoxicity control for MgcRacGAP inhibitor project (AID 624300); type: functional
# [12] = biological target: T5, Kappa-type opioid receptor (Homo sapiens, UniProt P41145); type: functional
# T5 sequence (P41145 whole entry): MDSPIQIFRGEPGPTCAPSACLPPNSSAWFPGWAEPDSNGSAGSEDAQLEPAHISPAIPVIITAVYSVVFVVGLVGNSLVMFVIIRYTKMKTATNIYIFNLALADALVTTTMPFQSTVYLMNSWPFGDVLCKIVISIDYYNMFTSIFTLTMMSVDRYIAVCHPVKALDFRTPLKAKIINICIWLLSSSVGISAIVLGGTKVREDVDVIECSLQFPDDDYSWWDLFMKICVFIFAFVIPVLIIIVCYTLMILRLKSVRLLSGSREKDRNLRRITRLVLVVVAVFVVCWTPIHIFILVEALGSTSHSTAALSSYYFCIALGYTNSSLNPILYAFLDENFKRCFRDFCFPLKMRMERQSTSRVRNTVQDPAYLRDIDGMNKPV
# [13] = biological target: T5, Kappa-type opioid receptor; type: functional; remark: listed apart in the source
# [14] = biological target: T6, Caspase-3 (Homo sapiens, UniProt P42574); assay: Dose-response confirmation of uHTS inhibitor hits of Sentrin-Specific Protease 8 in a Caspase-3 Fluorescence assay.; type: functional
# T6 sequence (P42574 whole entry): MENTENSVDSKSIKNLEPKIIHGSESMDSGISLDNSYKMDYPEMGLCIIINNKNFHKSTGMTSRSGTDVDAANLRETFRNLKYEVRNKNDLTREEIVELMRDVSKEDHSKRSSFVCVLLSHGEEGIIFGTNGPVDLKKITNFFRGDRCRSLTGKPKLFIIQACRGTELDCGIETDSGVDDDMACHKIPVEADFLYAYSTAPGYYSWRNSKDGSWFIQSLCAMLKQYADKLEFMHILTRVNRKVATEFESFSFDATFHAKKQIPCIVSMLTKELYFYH
# [15] = cytotoxicity toward NIH3T3 fibroblasts, dose response, counter-screen, cell-based, ATP luminescence, mouse fibroblasts (AID 2010); type: functional;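 further: cells exposed to compound for about 90 hours before reading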
# [16] = biological target: T7, Sentrin-specific protease 8 (Homo sapiens, UniProt Q96LD8); type: functional
# T7 sequence (Q96LD8 whole entry): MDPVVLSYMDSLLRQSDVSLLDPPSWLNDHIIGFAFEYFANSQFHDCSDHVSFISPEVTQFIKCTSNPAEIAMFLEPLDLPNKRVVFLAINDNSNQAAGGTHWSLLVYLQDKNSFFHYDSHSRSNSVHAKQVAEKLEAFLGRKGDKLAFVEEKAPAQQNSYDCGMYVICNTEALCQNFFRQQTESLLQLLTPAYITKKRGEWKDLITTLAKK
# [17] = control 3'UTR Renilla luciferase suppression, dose response, counter-screen for Shn3 inhibitor project, cell-based, Clone20-Shn3RL, cherry-picked (AID 624133); type: functional
# [18] = HepG2 cell cytotoxicity, dose response, cytotoxicity control for Shn3 inhibitor project, CellTiter-Glo, cherry-picked (AID 624134); type: functional, cell-based
# [19] = biological target: Heat shock protein HSP 90-alpha (Homo sapiens, UniProt P07900); type: functional, organism-based
# [20] = cells; type: functional
# [21] = inhibitors of intracellular T. cruzi replication, confirmation, NIH3T3 host cells, beta-gal luminescence (AID 2044); type: functional, cell-based;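 further: intracellular parasites grown in NIH/3T3 mouse fibroblasts as host cells; luminescent beta-galactosidase reporter signal from transgenic T. cruzi replicating inside host cells; inhibitors lower the luminescence signal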
# [22] = biological target: T7, Sentrin-specific protease 8; type: functional; remark: listed apart in the source
compound,measurement,setting,value
COc1cccc(S(=O)(=O)N(C)C[C@@H]2Oc3cc(C4=CCCCC4)ccc3S(=O)(=O)N([C@@H](C)CO)C[C@@H]2C)c1,AbsAC35,[1],50.42 µM
C[C@H](CO)N1C[C@H](C)[C@H](CN(C)S(=O)(=O)c2ccccc2)Oc2c(NC(=O)c3nc4ccccc4s3)cccc2C1=O,AC50,[2],22.6 µM (active)
COc1cc([N+](=O)[O-])ccc1N=C(S)NNC(=O)c1ccc2c(c1)OCO2,AC50,[3],> 100 µM (inactive)
COc1cc(/C=C/c2sc3ccccc3[n+]2CCCS(=O)(=O)[O-])ccc1O,EC50,[4],14.1 µM (active)
same,EC50,[5],16.2 µM (active)
same,EC50,[6],> 32 µM (inactive)
same,IC50,[7],> 32 µM (inactive)
same,EC50,[8],> 32 µM (inactive)
same,AC50,[9],> 380 µM (inactive)
same,IC50,[10],20.5 µM (active)
same,CC50,[11],100 µM (active)
same,IC50,[12],19.1 µM (active)
same,IC50,[13],> 32 µM
CC(=O)N1N=C(c2ccccc2)OC1c1ccc([N+](=O)[O-])s1 (configuration not stated),IC50,[14],48.3 µM (active)
same,EC50,[15],10.8 µM (active)
same,IC50,[16],6.39 µM (active)
same,AC50,[17],14.3 µM (active)
same,AC50,[18],39.3 µM (active)
same,AC50,[19],8.37 µM (active)
same,IC50,[20],43.3 µM (active)
same,EC50,[21],1.79 µM (active)
same,IC50,[22],6.49 µM (active)
